# Experiments:
# [1] = Rodent in vivo biodistribution (brain kinetics); parameters: species or system male CD-1 mice; conditions: for Brain distribution, F. CTX / Brain distribution, S. COLL / Brain distribution, CB / Brain distribution, CTX / Brain distribution, HIPP / Brain distribution, STR / Brain distribution, THAL: mice; for Brain distribution, CB: cerebellum; for Brain distribution, CTX: cortex; for Brain distribution, HIPP: hippocampus; for Brain distribution, STR: striatum; for Brain distribution, THAL: thalamus
# Method: (§1) Rodent In Vivo Biodistribution Studies of 1-4. Male CD-1 mice weighing between 20 and 25 g received an injection of 3.7 MBq (100 μCi) for 1 and 2 and 0.67 MBq ([…]) for 3 and 4 through the tail vein. The corresponding amounts administered were 0.2-0.8 μg/kg for 1 and 2 and 0.01-0.02 μg/kg for 3 and 4. For kinetic studies of 1-4, the mice were killed by cervical dislocation at 5, 15, 30 and 60 min after intravenous injection of radiotracer in 200 μL saline vehicle. The brains were removed and placed on ice, and the cerebellum, olfactory bulb, hypothalamus, hippocampus, striatum, cortex, brain stem and thalamus were harvested. A 45 min time point was obtained for 2 and one at 120 min for 3 and 4. The tissue samples were weighed and their radioactivity determined in an automated □ counter (1282 Compugamma CS; Pharmacia/LKB Nuclear Inc., Gaithersburg, Md.). The radioactivity concentration in aliquots of the injected tracer were determined along with the samples and served as standards for the calculation of percentage injected dose per gram of tissue (% ID/g). To assess binding specificity, subgroups of mice were treated with 10 mg/kg nicotine (for D or increasing doses of unlabeled 4 (0.01-10 mg/kg) 5 min prior to injection of radiotracer. Mice were killed at 30 and 60 min after blockade for 3 and 4, respectively.
# rat α4β2 nAChR = rat α4β2 nAChR (Rattus norvegicus, UniProt P09483+P12390); assay: Receptor binding assay, rat α4β2 nAChR (selectivity); conditions: binding selectivity vs rat α4β2 nAChR
# Sequence of rat α4β2 nAChR (P09483 31-630): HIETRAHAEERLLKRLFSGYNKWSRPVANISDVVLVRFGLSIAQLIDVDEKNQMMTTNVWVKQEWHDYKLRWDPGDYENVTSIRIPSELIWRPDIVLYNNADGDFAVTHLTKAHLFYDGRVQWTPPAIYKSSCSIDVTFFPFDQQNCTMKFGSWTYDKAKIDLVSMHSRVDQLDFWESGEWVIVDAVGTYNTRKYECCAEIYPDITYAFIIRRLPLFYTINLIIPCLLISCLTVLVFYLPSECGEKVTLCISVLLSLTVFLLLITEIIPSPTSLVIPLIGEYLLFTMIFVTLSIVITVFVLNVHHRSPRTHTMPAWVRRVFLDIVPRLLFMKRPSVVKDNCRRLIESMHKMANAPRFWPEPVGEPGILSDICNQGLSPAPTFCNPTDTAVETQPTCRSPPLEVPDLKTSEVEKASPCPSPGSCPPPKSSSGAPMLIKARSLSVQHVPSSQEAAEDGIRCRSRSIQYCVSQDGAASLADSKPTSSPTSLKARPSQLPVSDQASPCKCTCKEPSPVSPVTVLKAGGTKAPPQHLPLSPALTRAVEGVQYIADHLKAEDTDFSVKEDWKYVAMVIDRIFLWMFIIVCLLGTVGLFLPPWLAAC
# Sequence of rat α4β2 nAChR (P12390 25-500): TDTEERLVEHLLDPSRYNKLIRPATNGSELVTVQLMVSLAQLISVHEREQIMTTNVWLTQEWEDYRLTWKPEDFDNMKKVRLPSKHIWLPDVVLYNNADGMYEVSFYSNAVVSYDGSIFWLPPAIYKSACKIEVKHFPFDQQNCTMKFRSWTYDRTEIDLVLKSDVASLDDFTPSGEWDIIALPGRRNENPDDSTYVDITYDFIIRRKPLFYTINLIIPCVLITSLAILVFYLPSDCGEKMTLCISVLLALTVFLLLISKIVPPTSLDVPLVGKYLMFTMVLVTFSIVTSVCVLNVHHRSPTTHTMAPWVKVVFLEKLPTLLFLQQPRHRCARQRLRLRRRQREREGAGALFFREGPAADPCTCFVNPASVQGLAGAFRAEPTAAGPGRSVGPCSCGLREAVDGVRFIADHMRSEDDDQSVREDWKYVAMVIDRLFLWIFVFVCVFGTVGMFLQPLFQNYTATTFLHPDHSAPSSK
# Method: (§2) Receptor Binding Assays. The affinities of 1-4 for the rat α4β2 and α7 nAChRs were determined as described previously (Mullen, et al., J. Med. Chem.; 2000;43(22):4045-50). Affinities for the rat 5-HT3 receptor were also determined as described previously (Macor, et al., Bioorg. Med. Chem. Lett. 2001;11(3):319-21). All Ki determinations were done using 5-7 concentrations. […] There was a wide margin in selectivity compared to the α4β2 receptor subtype. Also included are the relative binding affinities to the 5-HT3 receptor, which has high sequence homology to the α7-nAChR.
# rat α7 nAChR = rat α7 nAChR (Rattus norvegicus, UniProt Q05941); assay: Receptor binding assay, rat α7 nAChR
# Sequence of rat α7 nAChR (Q05941 23-502): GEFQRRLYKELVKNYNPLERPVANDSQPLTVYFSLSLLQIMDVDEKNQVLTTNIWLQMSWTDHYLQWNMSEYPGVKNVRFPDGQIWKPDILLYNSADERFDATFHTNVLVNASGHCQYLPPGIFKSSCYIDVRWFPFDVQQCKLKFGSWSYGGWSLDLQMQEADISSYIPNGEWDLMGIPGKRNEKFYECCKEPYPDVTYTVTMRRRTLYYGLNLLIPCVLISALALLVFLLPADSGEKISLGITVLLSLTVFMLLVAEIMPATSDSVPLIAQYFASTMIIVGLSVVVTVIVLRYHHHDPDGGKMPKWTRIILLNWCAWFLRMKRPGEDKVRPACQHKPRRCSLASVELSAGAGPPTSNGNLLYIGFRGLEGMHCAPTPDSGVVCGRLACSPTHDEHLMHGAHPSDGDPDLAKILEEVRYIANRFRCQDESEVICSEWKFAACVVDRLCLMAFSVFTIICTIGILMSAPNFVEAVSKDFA
# Method: as §2
# α7-nAChR = target: T1, α7-nAChR (Mus musculus, UniProt P49582); assay: In vivo binding specificity (receptor blockade) study; parameters: species or system male CD-1 mice; conditions: LSA determinations at 30 and 60 min, mice
# T1 construct: Male CD-1 mice weighing between 20 and 25 g received an injection; from tissue; host or cells: brain of living male CD-1 mice (hippocampus, cortex and other regions)
# T1 sequence (P49582 23-502): as the sequence (Q05941 23-502) above, with A402T counted along it
# Method: as §1
# rat 5-HT3 receptor = target: T2, rat 5-HT3 receptor (Rattus norvegicus, UniProt P35563); assay: Receptor binding assay, rat 5-HT3 receptor (selectivity); conditions: binding selectivity vs rat 5-HT3 receptor
# T2 sequence (P35563 24-483): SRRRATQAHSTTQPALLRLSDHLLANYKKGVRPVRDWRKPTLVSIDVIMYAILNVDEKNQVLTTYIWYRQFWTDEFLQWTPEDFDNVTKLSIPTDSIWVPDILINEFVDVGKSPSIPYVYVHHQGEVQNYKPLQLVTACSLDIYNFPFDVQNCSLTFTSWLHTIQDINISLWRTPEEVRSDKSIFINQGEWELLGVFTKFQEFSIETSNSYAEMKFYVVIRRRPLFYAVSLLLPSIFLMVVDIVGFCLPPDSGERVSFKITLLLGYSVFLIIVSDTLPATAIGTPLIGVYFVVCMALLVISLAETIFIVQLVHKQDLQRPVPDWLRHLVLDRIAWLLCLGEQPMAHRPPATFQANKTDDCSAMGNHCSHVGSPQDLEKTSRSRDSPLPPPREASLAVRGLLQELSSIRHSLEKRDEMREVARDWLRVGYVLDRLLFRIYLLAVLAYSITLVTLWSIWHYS
# Method: as §2
# [2] = 30 min, low specific activity (LSA)
# [3] = 60 min, low specific activity (LSA)
structure (smiles),measurement,setting,value
"[11CH3]N(Cc1ccccc1)c1cnc2c(c1)CC1(CN3CCC1CC3)O2 (stereo not drawn) [Compound 1, (2′R)-N-[^11C]methyl-N-(phenylmethyl)-spiro[1-azabicyclo[2.2.2]octane-3,2′(3′H)-furo[2,3-b]pyridin]-5′-amine]","Brain distribution, F. CTX",[1]; 5 min post i.v. injection,1.77 ± 0.36 % ID/g
same,"Brain distribution, F. CTX",[1]; 15 min post i.v. injection,1.38 ± 0.25 % ID/g
same,"Brain distribution, F. CTX",[1]; [2],1.28 ± 0.07 % ID/g
same,"Brain distribution, F. CTX",[1]; 30 min post i.v. injection,0.95 ± 0.06 % ID/g
same,"Brain distribution, F. CTX",[1]; [3],1.07 ± 0.15 % ID/g
same,"Brain distribution, F. CTX",[1]; 60 min post i.v. injection,0.79 ± 0.11 % ID/g
same,"Brain distribution, S. COLL",[1]; 5 min post i.v. injection,1.49 ± 0.50 % ID/g
same,"Brain distribution, S. COLL",[1]; 15 min post i.v. injection,1.42 ± 0.26 % ID/g
same,"Brain distribution, S. COLL",[1]; [2],1.04 ± 0.15 % ID/g
same,"Brain distribution, S. COLL",[1]; 30 min post i.v. injection,1.09 ± 0.14 % ID/g
same,"Brain distribution, S. COLL",[1]; [3],0.88 ± 0.16 % ID/g
same,"Brain distribution, CB",[1]; 5 min post i.v. injection,1.66 ± 0.50 % ID/g
same,"Brain distribution, CB",[1]; 15 min post i.v. injection,1.38 ± 0.32 % ID/g
same,"Brain distribution, CB",[1]; [2],1.00 ± 0.06 % ID/g
same,"Brain distribution, CB",[1]; 30 min post i.v. injection,1.16 ± 0.19 % ID/g
same,"Brain distribution, CB",[1]; [3],0.65 ± 0.07 % ID/g
same,"Brain distribution, CB",[1]; 60 min post i.v. injection,0.84 ± 0.05 % ID/g
same,"Brain distribution, CTX",[1]; 5 min post i.v. injection,1.46 ± 0.48 % ID/g
same,"Brain distribution, CTX",[1]; 15 min post i.v. injection,1.28 ± 0.21 % ID/g
same,"Brain distribution, CTX",[1]; [2],1.16 ± 0.13 % ID/g
same,"Brain distribution, CTX",[1]; 30 min post i.v. injection,0.89 ± 0.11 % ID/g
same,"Brain distribution, CTX",[1]; [3],0.86 ± 0.15 % ID/g
same,"Brain distribution, CTX",[1]; 60 min post i.v. injection,0.69 ± 0.10 % ID/g
same,"Brain distribution, HIPP",[1]; 5 min post i.v. injection,1.24 ± 0.33 % ID/g
same,"Brain distribution, HIPP",[1]; 15 min post i.v. injection,1.12 ± 0.15 % ID/g
same,"Brain distribution, HIPP",[1]; [2],1.27 ± 0.09 % ID/g
same,"Brain distribution, HIPP",[1]; 30 min post i.v. injection,0.91 ± 0.05 % ID/g
same,"Brain distribution, HIPP",[1]; [3],0.98 ± 0.16 % ID/g
same,"Brain distribution, HIPP",[1]; 60 min post i.v. injection,0.81 ± 0.10 % ID/g
same,Regional selectivity of brain uptake,"[1]; mouse brain, all time points, in words","No α7-nAChR-selective, regional brain uptake"
same,Uptake within the brain (in words),"[1]; mouse brain, i.v. radiotracer",limited but measurable uptake within the brain
same,"Brain distribution, STR",[1]; 5 min post i.v. injection,1.47 ± 0.38 % ID/g
same,"Brain distribution, STR",[1]; 15 min post i.v. injection,1.20 ± 0.15 % ID/g
same,"Brain distribution, STR",[1]; [2],1.20 ± 0.05 % ID/g
same,"Brain distribution, STR",[1]; 30 min post i.v. injection,0.93 ± 0.10 % ID/g
same,"Brain distribution, STR",[1]; [3],0.75 ± 0.22 % ID/g
same,"Brain distribution, STR",[1]; 60 min post i.v. injection,0.69 ± 0.06 % ID/g
same,"Brain distribution, THAL",[1]; 5 min post i.v. injection,1.61 ± 0.61 % ID/g
same,"Brain distribution, THAL",[1]; 15 min post i.v. injection,1.35 ± 0.28 % ID/g
same,"Brain distribution, THAL",[1]; [2],1.23 ± 0.12 % ID/g
same,"Brain distribution, THAL",[1]; 30 min post i.v. injection,1.11 ± 0.06 % ID/g
same,"Brain distribution, THAL",[1]; [3],0.81 ± 0.06 % ID/g
same,"Brain distribution, THAL",[1]; 60 min post i.v. injection,0.77 ± 0.10 % ID/g
same,α7/α4,rat α4β2 nAChR,">22,000 (1)"
same,Ki,rat α7 nAChR,0.54 nM
same,Receptor blockade in low specific activity (LSA) studies,α7-nAChR,nor was there evidence of receptor blockade
same,α7/5-HT3,rat 5-HT3 receptor,18 (1)

# From patent US20050129610A1, “Imaging agents and methods of imaging alpha7-nicotinic cholinergic receptor” (Johns Hopkins University, priority 2003, published 2005)
